From patent US8748377B2, “Pharmaceutical compositions” (GlaxoSmithKline LLC, priority 2008, dated 2014)
Several values for one entry are separate records, joined by “and”; a condition that tells them apart may be missing. Equal entries are not always repeated. Marks after values point to notes of the source that are not given here.

Legend:
[1] = Phase 2 trial: pharmacokinetics of albiglutide (plasma ELISA, population PK with NONMEM); assay type: in vivo, human
Procedure: (§1) Adverse event assessments and safety analyses (including electrocardiograms, vital sign measurements and physical exams) were conducted throughout the study. Nausea and vomiting were monitored for occurrence and duration. Immunogenicity assessments were performed with samples taken at baseline and at weeks 1, 4, 8, and 12, and 16. Samples were screened for anti-albiglutide antibodies via ELISA (Matthews, et al. J Clin Endocrinol Metab. 2008; DOI: 10.1210/jc.2008-1518). […] Population PK analysis was performed using a nonlinear mixed-effect modelling approach with NONMEM software (Icon Development Solutions, Ellicott City, Md.).

[2] = test system: anti-albiglutide antibodies; experiment: Phase 2 trial: immunogenicity, anti-albiglutide antibodies via ELISA; assay type: in vivo, human
Procedure: as §1
An 11-week post-treatment washout period was included to monitor development of anti-albiglutide antibodies. […] The appearance of anti-albiglutide antibodies was largely transient, with 1 subject remaining positive at week 27. […] There was no obvious association between presence of anti-albiglutide antibodies and either efficacy or safety.

[3] = test system: Japanese subjects with type 2 diabetes; experiment: 28-day single-blind placebo-controlled study in Japanese subjects: pharmacodynamics (FPG, AUC0-4 glucose, A1C); assay type: in vivo, human
[4] = 28-day study in Japanese subjects: pharmacokinetics; assay type: in vivo, human; details: sc abdomen
Procedure: (§2) In the 100 mg monthly group, most common AEs were flatulence (n=3, 38%), vomiting (n=3, 38%) and nausea (n=2, 25%).

[5] = test system: Japanese subjects with type 2 diabetes; experiment: 28-day study in Japanese subjects: safety/tolerability; assay type: in vivo, human
Procedure: as §2

[6] = Baggio, et al. Diabetes 53:2492-2500, 2004; cited from earlier work
type 2 diabetic subjects [7] = experiment: Phase 2 randomized, placebo-controlled 16-week trial of weekly, biweekly and monthly albiglutide: glycemic efficacy (A1C, FPG, weight); assay type: in vivo, human; details: for A1C change from baseline (mean) / FPG change from baseline (mean) / Subjects achieving A1C < 7.0% / A1C reduction compared with placebo (ANCOVA model) / FPG change from baseline compared with placebo: week 16; for FPG reduction in background metformin (MET) subjects: after 16 weeks; for Weight loss: across albiglutide groups
Excerpt: Main outcome measure was change from baseline A1C, week 16 vs placebo.
Men and women of non-childbearing potential from 18-75 years of age were eligible for inclusion if diagnosed with type 2 diabetes ≧3 months before screening. Subjects were drug-naïve (diet & exercise) or treated with diet and exercise plus metformin as monotherapy stable for >3 months before prescreening (1 week prior to screening visit). […] Additional inclusion criteria included: BMI≧20 and ≦40 kg/m^2 and A1C at screening ≧7% and ≦10%.
A1C and fasting plasma glucose (FPG) measurements were performed at Screening, Baseline, and at Weeks 2 (FPG Only), 4, 5, 7, 8, 9, 12, 15, and 16.
The primary efficacy endpoint was change from baseline A1C at week 16 vs placebo across different doses within each schedule (weekly, biweekly, and monthly). The primary analysis was an ANCOVA model with main effects for treatment group and prior metformin therapy, adjusting for baseline A1C. Dose response was evaluated using contrasts within the ANCOVA model framework. Pairwise comparisons were performed in the same ANCOVA model. Secondary endpoints were analyzed similarly. Responder analysis and incidence of hypoglycemia were summarized by group statistics. […] Safety and tolerability data were collected categorically.
(§3) Comparisons were made on the intent-to-treat population, defined as all randomly assigned subjects with at least one post-baseline assessment of the primary endpoint, using last-observation carried forward. The safety population included all randomized patients who received at least one dose of any medication after being randomized. An interim analysis was conducted at 8 weeks for administrative purposes by an independent statistical analysis group; blinding was retained for study investigators and study personnel with daily operational responsibility.
Patients were also assessed for reduction in fasting plasma glucose (FPG) and HbA1c reduction based on background metformin (MET) treatment.

type 2 diabetic subjects [8] = test system: type 2 diabetic subjects; set-up: species or system human; details: in vivo
Procedure: as §1, with “16.” for “16. Samples were screened for anti-albiglutide antibodies via ELISA (Matthews, et al. J Clin Endocrinol Metab. 2008; DOI: 10.1210/jc.2008-1518).”
as §3
Gastrointestinal (GI) adverse events may limit adherence to GLP-1 therapies.

[9] = 30 mg weekly sc, listed as albiglutide
[10] = 50 mg biweekly sc, listed as ALB
[11] = 50 mg biweekly sc, listed as albiglutide
[12] = 100 mg monthly sc, listed as ALB
[13] = 100 mg monthly sc, listed as albiglutide

## Albiglutide: Long-acting GLP-1 receptor agonist: two DPP-4-resistant human GLP-1 analogs (GLP-1(7-36)(A8G)) fused to human albumin; SEQ ID NO:1
[1]; 30 mg weekly
  Steady state achieved after: 4-5 doses
[1]; albiglutide sc
  Tmax: ~72 h
[1]; sc, type 2 diabetic subjects
  Half-life: ~120 h
  Time to steady state levels after the first dose: 4-5 weeks
[1]; sc, type 2 diabetic subjects, listed as SEQ ID NO:1
  Half-life: about 5 days
[2]; 8 subjects in placebo and albiglutide arms, incl. 1 on placebo and 2 positive at baseline, through week 27
  Subjects positive for anti-albiglutide antibodies: 2.5%
[2]; antibody-positive subjects
  Character of anti-albiglutide antibodies: non-neutralizing, low-titer
[3]; 15 mg weekly, day 29
  A1C, PBO-adjusted change from baseline (LS Means Difference): −0.58*/ %
  FPG, PBO-adjusted change from baseline (LS Means Difference): −34.5* mg/dL
[3]; 15 mg weekly, day 43
  A1C, PBO-adjusted change from baseline (LS Means Difference): −0.87* %
[3]; 30 mg weekly, day 29
  A1C, PBO-adjusted change from baseline (LS Means Difference): −0.57*/ %
  FPG, PBO-adjusted change from baseline (LS Means Difference): −35.6* mg/dL
[3]; 30 mg weekly, day 43
  A1C, PBO-adjusted change from baseline (LS Means Difference): −0.78* %
[3]; 50 mg biweekly, day 29
  A1C, PBO-adjusted change from baseline (LS Means Difference): −0.63*/ %
  FPG, PBO-adjusted change from baseline (LS Means Difference): −31.3* mg/dL
[3]; 50 mg biweekly, day 43
  A1C, PBO-adjusted change from baseline (LS Means Difference): −0.79* %
[3]; 100 mg monthly, day 29
  A1C, PBO-adjusted change from baseline (LS Means Difference): −0.51*/ %
  FPG, PBO-adjusted change from baseline (LS Means Difference): -13.2 mg/dL
[3]; 100 mg monthly, day 43
  A1C, PBO-adjusted change from baseline (LS Means Difference): −0.59* %
[3]; Japanese subjects
  Onset of improvement of FPG and weighted mean AUC0-4 glucose: improved as early as day 3
[4]
  CL/F: 68.7 mL/h
  Plasma t1/2: 127 h
  V/F: 12.6 L
[5]; 100 mg monthly group, n=2
  Nausea (AE incidence): 25%
[5]; 100 mg monthly group, n=3
  Flatulence (AE incidence): 38%
  Vomiting (AE incidence): 38%
[5]; all doses, 28 days
  Serious AEs: No serious AEs
  Tolerability: generally well-tolerated
[6]
  Permeability to the central nervous system: relatively impermeant
Type 2 diabetic subjects [7]; 4 mg weekly sc
  A1C change from baseline (mean): −0.11%
  FPG change from baseline (mean): -0.47 ± 3.1 mmol/L
  Subjects achieving A1C < 7.0%: 17.6%
Type 2 diabetic subjects [7]; 4 mg weekly sc, listed as ALB
  A1C change from baseline (mean): −0.1 ± 1.2%
Type 2 diabetic subjects [7]; 15 mg biweekly sc
  A1C change from baseline (mean): −0.56%
  FPG change from baseline (mean): -1.28 ± 2.4 mmol/L
  Subjects achieving A1C < 7.0%: 26.7%
Type 2 diabetic subjects [7]; 15 mg biweekly sc, listed as ALB
  A1C change from baseline (mean): −0.6 ± 1.0%
Type 2 diabetic subjects [7]; 15 mg weekly sc
  A1C change from baseline (mean): −0.49%
  FPG change from baseline (mean): -0.72 ± 1.7 mmol/L
Type 2 diabetic subjects [7]; 15 mg weekly sc, listed as ALB
  A1C change from baseline (mean): −0.5 ± 0.7%
Type 2 diabetic subjects [7]; 30 mg biweekly sc
  A1C change from baseline (mean): −0.79 ± %
  FPG change from baseline (mean): -1.58 ± 2.1 mmol/L
  Subjects achieving A1C < 7.0%: 50.0%
Type 2 diabetic subjects [7]; 30 mg biweekly sc, listed as ALB
  A1C change from baseline (mean): −0.8 ± 1.0 %
Type 2 diabetic subjects [7]; 30 mg weekly
  MET patients achieving HbA1c <7%: 43%
  FPG reduction in background metformin (MET) subjects: -1.26 mmol/L
  A1C reduction compared with placebo (ANCOVA model): −0.62%
  FPG change from baseline compared with placebo: -1.38 mmol/L
Type 2 diabetic subjects [7]; 30 mg weekly sc
  A1C change from baseline (mean): −0.87 ± %
Type 2 diabetic subjects [7]; 30 mg weekly sc, listed as ALB
  A1C change from baseline (mean): −0.9 ± 0.7 %
  FPG change from baseline (mean): -1.44 ± 2.0 mmol/L
  Subjects achieving A1C < 7.0%: 51.7%
Type 2 diabetic subjects [7]; [9]
  A1C change from baseline (mean): −0.87% and −0.9%
  FPG change from baseline (mean): -1.44 mmol/L
  Subjects achieving A1C < 7.0%: 52%
Type 2 diabetic subjects [7]; 30 mg weekly, 16 weeks
  HbA1c reduction in MET subjects: −0.78%
Type 2 diabetic subjects [7]; 50 mg biweekly
  MET patients achieving HbA1c <7%: 50%
  FPG reduction in background metformin (MET) subjects: -2.10 mmol/L
  A1C reduction compared with placebo (ANCOVA model): −0.57%
  FPG change from baseline compared with placebo: -1.16 mmol/L
Type 2 diabetic subjects [7]; 50 mg biweekly sc
  A1C change from baseline (mean): −0.79 ± %
Type 2 diabetic subjects [7]; [10]
  A1C change from baseline (mean): −0.8 ± 1.0 %
  FPG change from baseline (mean): -1.32 ± 3.5 mmol/L
  Subjects achieving A1C < 7.0%: 52.9%
Type 2 diabetic subjects [7]; [11]
  A1C change from baseline (mean): −0.79% and −0.8%
  FPG change from baseline (mean): -1.32 mmol/L
  Subjects achieving A1C < 7.0%: 53%
Type 2 diabetic subjects [7]; 50 mg biweekly, 16 weeks
  HbA1c reduction in MET subjects: −0.83%
Type 2 diabetic subjects [7]; 50 mg monthly sc
  A1C change from baseline (mean): −0.55%
  FPG change from baseline (mean): -0.72 ± 2.8 mmol/L
  Subjects achieving A1C < 7.0%: 22.9%
Type 2 diabetic subjects [7]; 50 mg monthly sc, listed as ALB
  A1C change from baseline (mean): −0.6 ± 1.0%
Type 2 diabetic subjects [7]; 100 mg monthly
  MET patients achieving HbA1c <7%: 46%
  FPG reduction in background metformin (MET) subjects: -1.80 mmol/L
  A1C reduction compared with placebo (ANCOVA model): −0.60%
  FPG change from baseline compared with placebo: -1.17 mmol/L
Type 2 diabetic subjects [7]; 100 mg monthly sc
  A1C change from baseline (mean): −0.87 ± %
Type 2 diabetic subjects [7]; [12]
  A1C change from baseline (mean): −0.9 ± 0.9 %
  FPG change from baseline (mean): -1.22 ± 3.5 mmol/L
  Subjects achieving A1C < 7.0%: 48.4%
Type 2 diabetic subjects [7]; [13]
  A1C change from baseline (mean): −0.87% and −0.9%
  FPG change from baseline (mean): -1.22 mmol/L
  Subjects achieving A1C < 7.0%: 48%
Type 2 diabetic subjects [7]; 100 mg monthly, 16 weeks
  HbA1c reduction in MET subjects: −0.77%
Type 2 diabetic subjects [7]; 16-week trial
  Mean systolic and diastolic blood pressure: tended to reduce
  Plasma lipoprotein profile: did not significantly change
Type 2 diabetic subjects [7]; MET group, 16 weeks
  Weight loss: −0.4 to −2.1 kg
Type 2 diabetic subjects [7]; highest dose regimens in each timing schedule, 16 weeks
  Average weight loss: −1.1 to −1.7 kg
Type 2 diabetic subjects [7]; maximum doses of each schedule (30 mg weekly, 50 mg biweekly, 100 mg monthly)
  A1C reduction from a mean baseline A1C of 8.0%: 0.8-0.9%
Type 2 diabetic subjects [7]; overall population, 16 weeks
  Weight loss: −0.9 to −1.8 kg
Type 2 diabetic subjects [7]; subjects receiving albiglutide
  β-cell function (assessed by HOMA-B): Small improvements
Type 2 diabetic subjects [8]
  Documented hypoglycemia: 0-3.1%
  Documented hypoglycemia (in words): not increased
  Injection site local skin reactions: 2.9-28.2%
